38 compounds from patent US6878742B2, “Heterocyclic sulfonamide inhibitors of beta amyloid production” (Wyeth, priority 2000, dated 2005) can be followed below.

“And” between values parts separate entries of the source, which are not always exact repeats. Identical values can stand only once.

In the first assay the test system is amyloid precursor protein (APP) proteolysis. The experiment in a line: Repressor Release Assay (RRA). The assay is classed as cell-based. Conditions: Conc 1 μg/mL; luciferase activity over diluent control. In short, it runs like this:
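This repressor release assay monitors APP proteolysis in mammalian cells. Transfected CHO-K1 cells (pRSVO-luc plus APP-lacI) were seeded at […], treated with compound diluted in 25 mM Hepes, then incubated 36-48 hours. After replacing media with PBS and adding LucLite lysis/substrate buffer, luminescence was measured, and fold increase over diluent control was calculated.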
Consider `C=CCC(O)C(NS(=O)(=O)c1ccc(Cl)s1)C(C)CC` (mixture of isomers) [Example 128], for which the “APPI Fold Increase” value was 1.52 fold.

The assay is the same for the next values; noted with them: Conc 1 μg/mL; luciferase activity over diluent control; read-out: APPI Fold Increase.
Consider `O=S(=O)(N[C@H](CO)C1CCCCC1)c1ccc(Cl)s1` [Example 12, 5-Chloro-N-[(1S)-1-cyclohexyl-2-hydroxyethyl]thiophene-2-sulfonamide], for which the fold induction at 1 µg/mL turned out to be 2.58.

Still in this assay, the particulars now being: Conc 3 μg/mL; luciferase activity over diluent control.
With `C=CCC(O)C(NS(=O)(=O)c1ccc(Cl)s1)C(C)CC` (mixture of isomers) [Example 128], the “APPI Fold Increase” value is 2.48 fold.

Staying with this assay, now noted: Conc 3 μg/mL; luciferase activity over diluent control; read-out: APPI Fold Increase.
Turning to `O=S(=O)(N[C@H](CO)C1CCCCC1)c1ccc(Cl)s1` [Example 12, 5-Chloro-N-[(1S)-1-cyclohexyl-2-hydroxyethyl]thiophene-2-sulfonamide], the fold induction at 3 µg/mL was found to be 3.07.

Staying with this assay, now noted: Conc 10 μg/mL; luciferase activity over diluent control.
Turning to `C=CCC(O)C(NS(=O)(=O)c1ccc(Cl)s1)C(C)CC` (mixture of isomers) [Example 128], the “APPI Fold Increase” value was 5.62 fold and 3.86 fold. For the compound `CCCCCC(O)C(NS(=O)(=O)c1ccc(Cl)s1)C(C)CC` (mixture of isomers) [Example 122], the “APPI Fold Increase” value was 1.68 fold and 1.8 fold. Same read-out and setting: to `CC=C(C)C(O)C(NS(=O)(=O)c1ccc(Cl)s1)C(C)CC` (mixture of isomers) [Example 135] belongs 1.93 fold and 1.75 fold. Take `CC[C@H](C)[C@@H](CO)NS(=O)(=O)c1cc(Br)c(Cl)s1` [Example 3]: the “APPI Fold Increase” value came out at 1 fold. With `CCCCCCC(O)C(NS(=O)(=O)c1ccc(Cl)s1)C(C)CC` (mixture of isomers) [Example 121], the “APPI Fold Increase” value is 1.74 fold and 1.5 fold and 1.56 fold.

Still in this assay, the particulars now being: Conc 10 μg/mL; luciferase activity over diluent control; read-out: APPI Fold Increase.
Regarding `CC[C@H](C)[C@H](NS(=O)(=O)c1ccc(Br)s1)C(O)(CC)CC` [Example 173, 5-bromo-N-{(S)-2-ethyl-2-hydroxy-1-[(S)-1-methylpropyl]butyl}thiophene-2-sulfonamide], the fold induction at 10 µg/mL stood at 1.5. Still for that read-out and setting: under `CC[C@H](C)[C@H](NS(=O)(=O)c1cccs1)C(O)c1ccccc1C` (stereo partly drawn) [Example 144, N-{(S,S)-1-[hydroxy(2-methylphenyl)methyl]-2-methylbutyl}thiophene-2-sulfonamide] stands 1.51; under `CC[C@H](C)[C@H](NS(=O)(=O)c1ccc(Cl)s1)C(O)(c1ccc(OC)cc1)c1ccc(OC)cc1` [Example 169, 5-chloro-N-((S,S)-1-{hydroxy[bis(4-methoxyphenyl)]methyl}-2-methylbutyl)thiophene-2-sulfonamide], 1.51. Take `CCCCC(O)[C@@H](NS(=O)(=O)c1cccs1)[C@@H](C)CC` (stereo partly drawn) [Example 143, N-{(S)-2-hydroxy-1-[(S)-1-methylpropyl]hexyl}thiophene-2-sulfonamide]: the fold induction at 10 µg/mL was found to be 1.64.

Consider `CC[C@H](C)[C@H](NS(=O)(=O)c1cccs1)C(O)c1ccc(OC)cc1` (stereo partly drawn) [Example 149, N-{(S,S)-1-[hydroxy(4-methoxyphenyl)methyl]-2-methylbutyl}thiophene-2-sulfonamide], for which the fold induction at 10 µg/mL was found to be 1.62. As for `O=S(=O)(N[C@H](CO)C1CCCCC1)c1ccc(Cl)s1` [Example 12, 5-Chloro-N-[(1S)-1-cyclohexyl-2-hydroxyethyl]thiophene-2-sulfonamide], the fold induction at 10 µg/mL came out at 4.2. Still for that read-out and setting: to `C=CCC(O)(CC=C)[C@@H](NS(=O)(=O)c1ccc(Cl)s1)[C@@H](C)CC` [Example 165, N-{(S)-2-allyl-2-hydroxy-1-[(S)-1-methylpropyl]pent-4-enyl}-5-chlorothiophene-2-sulfonamide] belongs 1.73. Same read-out and setting: to `CC[C@H](C)[C@H](NS(=O)(=O)c1ccc(Cl)s1)C(O)(c1ccccc1)c1ccccc1` [Example 164, 5-chloro-N-{(S,S)-1-[hydroxy(diphenyl)methyl]-2-methylbutyl}thiophene-2-sulfonamide] belongs 1.72. Still for that read-out and setting: to `CC[C@H](C)[C@H](NS(=O)(=O)c1ccc(Cl)s1)C(O)CCC1OCCCO1` (stereo partly drawn) [Example 136, 5-chloro-N-{(S)-4-(1,3-dioxan-2-yl)-2-hydroxy-1-[(S)-1-methylpropyl]butyl}thiophene-2-sulfonamide] belongs 2.13; to `CC[C@H](C)[C@H](NS(=O)(=O)c1ccc(Cl)s1)C(O)(CC)CC` [Example 166, 5-chloro-N-{(S)-2-ethyl-2-hydroxy-1-[(S)-1-methylpropyl]butyl}thiophene-2-sulfonamide], 1.78; to `C=CCCC(O)(CCC=C)[C@@H](NS(=O)(=O)c1ccc(Cl)s1)[C@@H](C)CC` [Example 171, N-{(S)-2-but-3-enyl-2-hydroxy-1-[(S)-1-methylpropyl]hex-5-enyl}-5-chlorothiophene-2-sulfonamide], 5.32.

Staying with this assay, now noted: Conc 20 μg/mL; luciferase activity over diluent control.
`C=CCC(O)C(NS(=O)(=O)c1ccc(Cl)s1)C(C)CC` (mixture of isomers) [Example 128]: the “APPI Fold Increase” value is reported as 5.9 fold.

As to `O=S(=O)(NC1(CO)Cc2ccccc2C1)c1ccc(Br)s1` [Example 183], the “APPI Fold Increase” value was determined as 3.7 fold.

As to “5-bromo-N-{(S,R)-2-hydroxy-1-[(S)-1-methylpropyl]pent-4-enyl}thiophene-2-sulfonamide [Example 195]”, the “APPI Fold Increase” value was 4.2 fold and 6.7 fold.

Staying with this assay, now noted: Conc 20 μg/mL; luciferase activity over diluent control; read-out: APPI Fold Increase.
Regarding `O=S(=O)(N[C@H](CO)C1CCC(OCc2ccccc2)CC1)c1ccc(Cl)s1` (stereo partly drawn) [Example 202, N-{(S)-1-[4-(benzyloxy)cyclohexyl]-2-hydroxyethyl}-5-chlorothiophene-2-sulfonamide], the fold induction at 20 µg/mL turned out to be 2.

On to `CCCCC(CO)NS(=O)(=O)c1ccc(Cl)s1` (racemic) [Example 91, 5-chloro-N-[1-(hydroxymethyl)pentyl]thiophene-2-sulfonamide], for which the fold induction at 20 µg/mL is 2. Regarding `CC(C)C[C@@H](C(C)C)[C@@H](CO)NS(=O)(=O)c1ccc(Br)s1` [Example 75, 5-bromo-N-[(1S,2S)-1-(hydroxymethyl)-2-isopropyl-4-methylpentyl]thiophene-2-sulfonamide], the fold induction at 20 µg/mL worked out at 4.7. For the compound `CC(C)(CO)NS(=O)(=O)c1ccc(Br)s1` [Example 107, 5-bromo-N-(2-hydroxy-1,1-dimethylethyl)thiophene-2-sulfonamide], the fold induction at 20 µg/mL stood at 1.5. Consider `CC(C)C[C@@H](c1ccco1)[C@@H](CO)NS(=O)(=O)c1ccc(Cl)s1` [Example 50, 5-chloro-N-[(1S,2R)-2-(2-furyl)-1-(hydroxymethyl)-4-methylpentyl]thiophene-2-sulfonamide], for which the fold induction at 20 µg/mL is 7.7. Turning to `C[C@H](OCc1ccccc1)[C@@H](CO)NS(=O)(=O)c1ccc(Cl)s1` [Example 102, N-[(R,S)-2-(benzyloxy)-1-(hydroxymethyl)propyl]-5-chlorothiophene-2-sulfonamide], the fold induction at 20 µg/mL came out at 1.6. Same read-out and setting: under `O=S(=O)(N[C@H](CO)C1CCCCC1)c1ccc(Cl)s1` [Example 12, 5-Chloro-N-[(1S)-1-cyclohexyl-2-hydroxyethyl]thiophene-2-sulfonamide] stands 4.3; under `CCC(CC)[C@@H](CO)NS(=O)(=O)c1ccc(Br)s1` [Example 58, 5-bromo-N-[(1S)-2-ethyl-1-(hydroxymethyl)butyl]thiophene-2-sulfonamide], 10; under `CCC(NCCO)[C@@H](CO)NS(=O)(=O)c1ccc(Cl)s1` (stereo partly drawn) [Example 82, 5-chloro-N-[(1S)-2-[(2-hydroxyethyl)amino]-1-(hydroxymethyl)butyl]-2-thiophenesulfonamide], 2.2.

Consider `CCCOC1CCC([C@@H](CO)NS(=O)(=O)c2ccc(Cl)s2)CC1` (stereo partly drawn) [Example 200, 5-chloro-N-[(S)-2-hydroxy-1-(4-propoxycyclohexyl)ethyl]thiophene-2-sulfonamide], for which the fold induction at 20 µg/mL is 2. As to `CCC(C)C(C)C(CO)NS(=O)(=O)c1ccc(Cl)s1` (centres unmarked) [Example 19, 5-Chloro-N-[1-(hydroxymethyl)-2,3-dimethylpentyl]thiophene-2-sulfonamide], the fold induction at 20 µg/mL came to 6. Consider `CC[C@H](c1ccc(OC)cc1)[C@@H](CO)NS(=O)(=O)c1ccc(Cl)s1` [Example 32, 5-chloro-N-[(1S,2R)-1-(hydroxymethyl)-2-(4-methoxyphenyl)butyl]thiophene-2-sulfonamide], for which the fold induction at 20 µg/mL came out at 5. `C[C@@H](c1ccccc1)[C@@H](CO)NS(=O)(=O)c1ccc(Cl)s1` [Example 46, 5-chloro-N-[(1S,2S)-1-(hydroxymethyl)-2-phenylpropyl]thiophene-2-sulfonamide]: the fold induction at 20 µg/mL came to 5.8. As to `CCCCCC[C@@H](c1ccco1)[C@@H](CO)NS(=O)(=O)c1ccc(Cl)s1` [Example 51, 5-chloro-N-[(1S,2R)-2-(2-furyl)-1-(hydroxymethyl)octyl]thiophene-2-sulfonamide], the fold induction at 20 µg/mL turned out to be 4.

Consider `CC(C)[C@@](C)(CO)NS(=O)(=O)c1ccc(Cl)s1` [Example 26, 5-chloro-N-[(1S)-1-(hydroxymethyl)-1,2-dimethylpropyl]thiophene-2-sulfonamide], for which the fold induction at 20 µg/mL is 5. On the same count and under the same terms, under `CCCCCC[C@@H](C(C)C)[C@@H](CO)NS(=O)(=O)c1ccc(Cl)s1` [Example 52, 5-chloro-N-[(1S,2S)-1-(hydroxymethyl)-2-isopropyloctyl]thiophene-2-sulfonamide] stands 7; under `CCC(CC)[C@H](NS(=O)(=O)c1ccc(Cl)s1)C(C)(C)O` [Example 223, 5-Chloro-N-[(S)-2-ethyl-1-(1-hydroxy-1-methylethyl)butyl]thiophene-2-sulfonamide], 5.6; under `CC(NCCO)[C@@H](CO)NS(=O)(=O)c1ccc(Cl)s1` (stereo partly drawn) [Example 81, 5-chloro-N-[(1S)-2-[(2-hydroxyethyl)amino]-1-(hydroxymethyl)propyl]-2-thiophenesulfonamide], 1.5. On the same count and under the same terms, to `CCC(CC)[C@@H](CO)NS(=O)(=O)c1ccc(F)s1` [Example 227, N-[(S)-2-Ethyl-1-(hydroxymethyl)butyl]-5-fluorothiophene-2-sulfonamide] belongs 26.3; to `CCCCC[C@H](c1ccccc1)[C@@H](CO)NS(=O)(=O)c1ccc(Cl)s1` [Example 45, 5-chloro-N-[(1S,2R)-1-(hydroxymethyl)-2-phenylheptyl]thiophene-2-sulfonamide], 2.1. On the same count and under the same terms, to `CC[C@H](C)[C@@H](CO)NS(=O)(=O)c1ccc(F)s1` [Example 208, 5-Fluoro-N-[(1S,2S)-1-(hydroxymethyl)-2-methylbutyl]-2-thiophenesulfonamide] belongs 16.5.
